The source of these data is patent US20160271263A1 (Novo Nordisk A/S, priority 2010, published 2016).

Molecules are shown by their SMILES. pEC50: −log10 of the molar value. Numbered stars: 1 amine (or outer) side, 2 acyl side, 3 side chain; on linkers, the order of the positions; unused ones are H or OH. Side chains are listed from the residue outwards. Peptide text beside a SMILES is read from it. * marks the point of attachment. C18 diacid = O=C(O)CCCCCCCCCCCCCCCCC(=O)*; γGlu = O=C(O)[C@H](CCC(=O)[*:2])N[*:1]; AEEA = NCCOCCOCC(=O)O

glucagon receptor, sequence (P47871 26-477): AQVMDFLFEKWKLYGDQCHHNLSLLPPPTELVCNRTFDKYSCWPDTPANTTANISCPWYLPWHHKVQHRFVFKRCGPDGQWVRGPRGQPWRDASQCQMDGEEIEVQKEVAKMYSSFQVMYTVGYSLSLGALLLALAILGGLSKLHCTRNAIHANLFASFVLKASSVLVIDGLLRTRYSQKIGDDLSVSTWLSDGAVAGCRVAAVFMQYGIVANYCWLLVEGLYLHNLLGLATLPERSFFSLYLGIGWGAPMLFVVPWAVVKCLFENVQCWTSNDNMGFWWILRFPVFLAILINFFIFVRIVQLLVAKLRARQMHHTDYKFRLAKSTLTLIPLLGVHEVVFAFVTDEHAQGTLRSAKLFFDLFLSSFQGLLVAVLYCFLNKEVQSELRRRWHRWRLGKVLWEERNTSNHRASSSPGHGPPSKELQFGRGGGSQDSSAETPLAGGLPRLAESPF

This test concerns the target glucagon receptor (Homo sapiens, UniProt P47871). Briefly: cell-based.
With `CC(C)C[C@H](NC(=O)[C@H](Cc1ccc(O)cc1)NC(=O)[C@H](CCCCN)NC(=O)[C@H](CO)NC(=O)[C@H](Cc1ccc(O)cc1)NC(=O)[C@H](CCC(=O)O)NC(=O)[C@H](CO)NC(=O)[C@@H](NC(=O)[C@H](Cc1ccccc1)NC(=O)[C@@H](NC(=O)CNC(=O)[C@H](CCC(N)=O)NC(=O)[C@H](CO)NC(=O)[C@@H](N)Cc1c[nH]cn1)[C@@H](C)O)[C@@H](C)O)C(=O)N[C@@H](CC(=O)O)C(=O)N[C@@H](CO)C(=O)N[C@@H](CCCNC(=N)N)C(=O)N[C@@H](CCCNC(=N)N)C(=O)N[C@@H](C)C(=O)N[C@@H](CCC(N)=O)C(=O)N[C@@H](CC(=O)O)C(=O)N[C@@H](Cc1ccccc1)C(=O)N[C@H](C(=O)N[C@@H](CCCCNC(=O)CC[C@H](NC(=O)CC[C@H](NC(=O)COCCOCCNC(=O)CC[C@H](NC(=O)CCCCCCCCCCCCCCCCC(=O)O)C(=O)O)C(=O)O)C(=O)O)C(=O)N[C@@H](Cc1c[nH]c2ccccc12)C(=O)N[C@@H](CC(C)C)C(=O)N[C@@H](CC(C)C)C(=O)N[C@@H](CO)C(=O)N[C@H](C(=O)O)[C@@H](C)O)C(C)C` [Example 92, N^ε24-[(4S)-4-carboxy-4-[[(4S)-4-carboxy-4-[[2-[2-[2-[[(4S)-4-carboxy-4-(17-carboxyheptadecanoylamino)butanoyl]amino]ethoxy]ethoxy]acetyl]amino]butanoyl]amino]butanoyl]-[Glu^9,Lys^24,Leu^27,Ser^28]-Glucagon], the pEC50 was 8.66.
Under `CC(C)C[C@H](NC(=O)[C@H](Cc1ccc(O)cc1)NC(=O)[C@H](CCCCN)NC(=O)[C@H](CO)NC(=O)[C@H](Cc1ccc(O)cc1)NC(=O)[C@H](CC(=O)O)NC(=O)[C@H](CO)NC(=O)[C@@H](NC(=O)[C@H](Cc1ccccc1)NC(=O)[C@@H](NC(=O)CNC(=O)[C@H](CCC(N)=O)NC(=O)[C@H](CO)NC(=O)[C@@H](N)Cc1c[nH]cn1)[C@@H](C)O)[C@@H](C)O)C(=O)N[C@@H](CC(=O)O)C(=O)N[C@@H](CO)C(=O)N[C@@H](CCCNC(=N)N)C(=O)N[C@@H](CCCNC(=N)N)C(=O)N[C@@H](C)C(=O)N[C@@H](CCC(N)=O)C(=O)N[C@@H](CC(=O)O)C(=O)N[C@@H](Cc1ccccc1)C(=O)N[C@H](C(=O)N[C@@H](CCC(N)=O)C(=O)N[C@@H](Cc1c[nH]c2ccccc12)C(=O)N[C@@H](CC(C)C)C(=O)N[C@@H](CC(C)C)C(=O)N[C@@H](CCCCNC(=O)COCCOCCNC(=O)COCCOCCNC(=O)CC[C@H](NC(=O)CCCCCCCCCCCCCCCCC(=O)O)C(=O)O)C(=O)N[C@H](C(=O)O)[C@@H](C)O)C(C)C` [Example 8] stands 10.66; under `CC(C)C[C@H](NC(=O)[C@H](CC(C)C)NC(=O)[C@H](Cc1c[nH]c2ccccc12)NC(=O)[C@H](CCC(N)=O)NC(=O)[C@@H](NC(=O)[C@H](Cc1ccccc1)NC(=O)[C@H](CCC(=O)O)NC(=O)[C@H](CCC(N)=O)NC(=O)[C@H](C)NC(=O)[C@H](CCCNC(=N)N)NC(=O)[C@H](CCCCN)NC(=O)[C@H](CO)NC(=O)[C@H](CC(=O)O)NC(=O)[C@H](CC(C)C)NC(=O)[C@H](Cc1ccc(O)cc1)NC(=O)[C@H](CCCCN)NC(=O)[C@H](CO)NC(=O)[C@H](Cc1ccc(O)cc1)NC(=O)[C@H](CC(=O)O)NC(=O)[C@H](CO)NC(=O)[C@@H](NC(=O)[C@H](Cc1ccccc1)NC(=O)[C@@H](NC(=O)CNC(=O)[C@H](CCC(N)=O)NC(=O)[C@H](CO)NC(=O)[C@@H](N)Cc1c[nH]cn1)[C@@H](C)O)[C@@H](C)O)C(C)C)C(=O)N[C@@H](CC(N)=O)C(=O)N[C@@H](CCCCNC(=O)COCCOCCNC(=O)COCCOCCNC(=O)CC[C@H](NC(=O)CCCCCCCCCCCCCCCCC(=O)O)C(=O)O)C(N)=O` [Example 46, N^ε29 ([2-[2-[2-[[2-[2-[2-[[(4S)-5-hydroxy-4-[(18-hydroxy-18-oxooctadecanoyl)amino]-5-oxopentanoyl]amino]ethoxy]ethoxy]acetyl]amino]ethoxy]ethoxy]acetyl]) [Lys^17, Glu^21, Leu^27, Lys^29] Glucagon peptide amide] (H-HSQGTFTSDYSKYLDSKRAQEFVQWLLNK([AEEA-AEEA-γGlu-C18 diacid])-NH2; N-terminus assumed), 11.52.
